Measured values as given in the NIST ThermoML archive (doi:10.1021/acs.jced.5b00776).

Details: Wilhelmi plate

O [water]
Details | surface tension liquid-gas [mN/m]
272.64 K, Metastable liquid | 75.78
273.04 K, Metastable liquid | 75.71
275.06 K, Liquid | 75.41
276.72 K, Liquid | 75.17
280.09 K, Liquid | 74.69
280.34 K, Liquid | 74.65
283.27 K, Liquid | 74.23
286.54 K, Liquid | 73.74
288.33 K, Liquid | 73.46
290.57 K, Liquid | 73.12
293.04 K, Liquid | 72.74
294.13 K, Liquid | 72.58
295.71 K, Liquid | 72.33
297.4 K, Liquid | 72.07
298.42 K, Liquid | 71.91
299.35 K, Liquid | 71.77
300.3 K, Liquid | 71.62
301.78 K, Liquid | 71.39
302.43 K, Liquid | 71.28
303.41 K, Liquid | 71.13
304.45 K, Liquid | 70.96
305.69 K, Liquid | 70.76
306.63 K, Liquid | 70.61
307.99 K, Liquid | 70.39
310.6 K, Liquid | 69.97
313.69 K, Liquid | 69.47
316.02 K, Liquid | 69.07
318.49 K, Liquid | 68.66
323.62 K, Liquid | 67.79
328.1 K, Liquid | 67.03
333.49 K, Liquid | 66.1
337.83 K, Liquid | 65.34
343.49 K, Liquid | 64.33
